# US12398110B2, “Second generation inhibitors of mitochondrial permeability transition pore with improved plasma stability” (Oregon Health & Science University, priority 2019, dated 2025)
# How the values were obtained:
# mtPTP = experiment: Chemical activator (PhAsO, Diamide, Cu(OP)2, NEM) induced mitochondrial swelling; assay type: biochemical, mouse; conditions: 1.5 μm compound, 10 μm Ca2+ plus PhAsO, Cu(OP)2 or NEM
# Method: […] graphs compound TR001 prevention of chemical activation induced mitochondrial swelling. FIG. 3A-3D) mouse liver mitochondria (0.25 mg/mL) were treated with 10 μM Ca^2+ only (traces a); 10 μm Ca^2+ and after 2 min of incubation with: FIG. 3A) 7 μm PhAsO, FIG. 3B) 2 mm Diamide, FIG. 3C), 7 μm Cu(OP)2, FIG. 3D), 2 mm NEM (traces b-d). In traces c and d additions were as in traces b except that mitochondria were also treated with 1.5 μmCsA (traces c) or TR001 (traces d). Traces are representative of n=4 independent preparations.
# Based on the SAR studies and mouse plasma stability data, we decided to move forward with TR001 for more extensive biological characterization. As noted above, mtPTP is triggered by elevated levels of matrix Ca^2+ and potentiated by oxidative stress, leading to mitochondrial swelling. We therefore next tested the ability of TR001 to protect from oxidizing agent-triggered mtPTP opening. For this purpose, we used known chemical activators of the mtPTP that react with two distinct classes of redox sensitive thiols (—SH) and increase the propensity of mtPTP opening. […]
# [1] = test system: col6a1 zebrafish morphants; experiment: Touch-evoked escape response in col6a1 zebrafish morphants; assay type: in vivo; conditions: 48 hpf, 27 hours of treatment, 0.1, 1 and 10 μm
# Method: Zebrafish embryos were injected with col6a1 morpholino at the 1-cell stage, dechorionated at 20 hpf and treated at 21 hpf with 0.1, 1 or 10 μm of either TR001 or 63. DMSO-treated embryos injected with a scrambled morpholino were used as a control. […] It should be noted that in these protocols, embryos were exposed to drugs for a longer period of time than in the spontaneous coiling experiments. This difference may help to explain why TR001 was as effective at 0.1 μm as it was at 1 and 10 μm.
# (§1) Morpholino antisense injection and treatment. Knock-down of col6a1 gene expression was obtained with a previously published morpholino ^[25] with sequence GAGAGCGGAAGACGAACCTTCATTC (SEQ ID NO: 2; GeneTools, Inc.). A control morpholino with no sequence homology in the zebrafish genome was used in parallel (CCTCTTACCTCAGTTACAATTTATA; SEQ ID NO: 3). Zebrafish eggs from wild-type matings were injected at the 1-2 cell stage with approximately 10 nL of 0.1 mm morpholino solution (corresponding to 4 ng of morpholino) using a WPI pneumatic PicoPump PV820 injector (World Precision Instruments, Inc.). Zebrafish embryos were dechorionated at 20 hours post fertilization (hpf) and treated at 21 hpf with increasing doses (0.1, 1 and 10 μm) of both TR001 and 63 compounds dissolved in fish water with 1% DMSO (vehicle).
# Motor activity. The number of spontaneous coiling events performed in 15 seconds by single zebrafish embryos was recorded at 24 hpf by light microscopy. Touch-evoked escape responses were recorded at 48 hpf by observing the ability of zebrafish embryos to escape after a tail-touch with a little tip. Embryos were subdivided in 4 groups according to the observed phenotype: paralyzed embryos, score 0; underdeveloped embryos showing only coiling events, score 1; embryos showing lower motility, score 2; normal embryos, score 3.
# [2] = test system: col6a1 zebrafish morphants; experiment: OCR measurement on entire col6a1 morphant zebrafish embryos; assay type: in vivo; conditions: 48 hpf, 10 μm
# Description: To test the effects of both TR001 and 63 on the respiration of col6a1 morphant embryos, we measured the OCR on entire embryos at 48 hpf. […] Moreover, TR001 at a concentration of 10 μm was able to fully restore the maximal respiratory capacity (FIG. 6D, left panel, open diamonds, p<0.001) of col6a1 morphants.
# as §1, with “Zebrafish embryos were dechorionated at 20 hours post fertilization (hpf) and treated at 21 hpf with increasing doses (0.1, 1 and 10 μm) of both TR001 and 63 compounds dissolved in fish water with 1% DMSO (vehicle).” left out
# OCR measurement. […] First, basal respiration was measured. Second, respiration due to ATP synthase was measured after addition of 10 μm oligomycin (Merck Millipore-495455). Third, maximal respiration capacity was measured by adding 2 μm of the uncoupler carbonyl cyanide-4-(trifluoromethoxy)phenylhydrazone (FCCP, Sigma-Aldrich, C2920). […]
smiles,measurement,setting,value
"Cc1ccc(Cl)cc1NC(=O)c1cn(-c2ccc(F)c(O)c2)nn1 [TR001, N-(5-chloro-2-methylphenyl)-1-(4-fluoro-3-hydroxyphenyl)-1H-1,2,3-triazole-4-carboxamide]",effect on oxidizing agent-triggered mtPTP opening,mtPTP,delayed mtPTP opening
same,touch-evoked escape response (motility),[1],improved
same,maximal respiratory capacity (OCR) of col6a1 morphants,[2],fully restore
